From PubChem BioAssay AID1963825 (Molecular Pharmacology Branch, DTP, NCI, 2024)

Test: Anticancer human tumor 997537-175-T-J1-PDC patient-derived colon adenocarcinoma cell line growth inhibition [POLQ]
Settings: 997537-175-T-J1-PDC complex spheroid viability, combination with POLQ inhibitors; for IC50: curve of first compound; for viability, T/C: stronger effect = lower value
Description: Multicellular complex tumor spheroid response to Polymerase (POL) inhibitors (novobiocin, ART-558, RP6685) in combination with a variety of drugs and investigational agents in selected tumor cell lines
The POL inhibitors (novobiocin, ART-558, and RP6685) were evaluated both individually and in combination with standard of care and investigational anticancer small molecules within a complex spheroid model of solid tumors. . Complex spheroids include a stromal component modeled by human endothelial cells (HUVEC) and fibroblasts modeled by human mesenchymal stem cells (MSCs). The concentration ranges selected for each drug and investigational agent were based upon clinically achievable concentrations if the clinical Cmax of the agent was known.
Compounds. The drugs and investigational agents: novobiocin (NSC847541), ART-558 (NSC835418), RP-6685 (NSC848927), peposertib (NSC802822), ceralasertib (NSC780249), elimusertib (NSC800525), camonsertib (NSC841442), AZD-1390 (NSC803789), olaparib (NSC753686), talazoparib (NSC767125), rucaparib (NSC756644), sotorasib (NSC818433), MRTX-1133 (NSC836407), SN-38 (NSC673596), topotecan (NSC609699), epotoside (NSC141540), doxorubicin (NSC123127), gemcitabine (NSC613327), 5-fluorouracil (NSC19893), paclitaxel (NSC125973), vemurafenib (NSC761431), MSA-2 (NSC828583), SN-011 (NSC837082), adavosertib (NSC754352), prexasertib (NSC758257), carboplatin (NSC241240) and oxaliplatin (NSC266046), were obtained from the National Cancer Institute (NCI) Developmental Therapeutics Program Chemical Repository (21). The FDA-approved anticancer drug set is available from the Developmental Therapeutics Program at https://dtp.cancer.gov/organization/dscb/obtaining/. […] The stock solutions were prepared in dimethyl sulfoxide (DMSO, Sigma-Aldrich, St. Louis, MO, cat. D2650), except for the platinum compounds which were prepared in saline (Quality Biological, Gaithersburg, MD, cat. 114-055-101), at 800-fold the tested concentration and stored at -70 degrees C prior to their use. All drugs and investigational agents were tested over a range starting from a high concentration at or near the clinical Cmax and decreasing in half-log increments. If the clinical Cmax for an agent had not been determined, the highest concentration tested was 10 microM, except for SN-38, which was tested at a high concentration of 1 microM.
Cell Culture. All cells were maintained in an incubator at 37 degrees C and 5% CO2 with 95% humidity. The PDC lines were cultured according to standard operating procedures established by the NCI PDMR (https://pdmr.cancer.gov). Table 3 of the manuscript, lists the cell lines along with the number of the three cell types plated to form the mct-spheroids and media for tumor cell growth. After thawing, all PDC lines, except 997537-175-T-J1-PDC and 415267-285-R-J2-PDC, were cultured in Matrigel-coated flasks prepared with a working solution of 1X Ham's F-12 nutrient mix, without supplementation (Thermo Fisher Scientific, cat. 11765054), 100 U/mL penicillin-streptomycin (Thermo Fisher Scientific, cat. 15140122), and 2.5% Matrigel (Corning Inc., Corning, NY, cat. 354248) for the first three passages. The two PDC lines 997537-175-T-J1-PDC and 415267-285-R-J2-PDC were cultured on uncoated flasks. The 857933-349-R-J2-PDC line was cultured in 6C/Colon 1B media containing advanced DMEM/F-12 (Thermo Fisher Scientific, cat. 12634028), 10 mM HEPES (Thermo Fisher Scientific, cat. 15630080), 1X GlutaMAX supplement (Thermo Fisher Scientific, cat. 35050061), 0.1 mg/mL primocin (InvivoGen, San Diego, CA, cat. ant-pm-2), 10% defined fetal bovine serum, heat inactivated (HyClone Laboratories Inc., Logan, UT, cat. SH30070.03HI), 50% L-WRN conditioned media (ATCC, cat. CRL-3276), 1.25 mM N-Acetyl-L-cysteine (Sigma-Aldrich, cat. A9165), 10 mM nicotinamide (Sigma-Aldrich, cat. N0636), 1X B-27 supplement (Thermo Fisher Scientific, cat. 17504044), 1X N-2 supplement (Thermo Fisher Scientific, cat. […]
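Note: luminescence signal used as a surrogate for viable cells; spheroids exposed to drugs for seven days before readout.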

O=c1[nH]cc(F)c(=O)[nH]1 + Nc1ccc(C#CCN(C(=O)Cc2ncc(C(F)(F)F)cc2C(F)(F)F)c2ccc(F)cc2)nn1
IC50 (second compound 0.0316 µM): > 10 µM
IC50 (second compound 0.1 µM): > 10 µM
IC50 (second compound 0.316 µM): > 10 µM
IC50 (second compound 1 µM): > 10 µM
IC50 (second compound 3.16 µM): > 10 µM
IC50 (second compound 10 µM): > 10 µM
viability, T/C (second compound 0.0316 µM, first compound 0.0316 µM): 98.7%
viability, T/C (second compound 0.0316 µM, first compound 0.1 µM): 105%
viability, T/C (second compound 0.0316 µM, first compound 0.316 µM): 109%
viability, T/C (second compound 0.0316 µM, first compound 1 µM): 84.9%
viability, T/C (second compound 0.0316 µM, first compound 3.16 µM): 95.7%
viability, T/C (second compound 0.0316 µM, first compound 10 µM): 79%
viability, T/C (second compound 0.1 µM, first compound 0.0316 µM): 106%
viability, T/C (second compound 0.1 µM, first compound 0.1 µM): 99.8%
viability, T/C (second compound 0.1 µM, first compound 0.316 µM): 95.9%
viability, T/C (second compound 0.1 µM, first compound 1 µM): 103%
viability, T/C (second compound 0.1 µM, first compound 3.16 µM): 82.6%
viability, T/C (second compound 0.1 µM, first compound 10 µM): 88.1%
viability, T/C (second compound 0.316 µM, first compound 0.0316 µM): 95%
viability, T/C (second compound 0.316 µM, first compound 0.1 µM): 102%
viability, T/C (second compound 0.316 µM, first compound 0.316 µM): 103%
viability, T/C (second compound 0.316 µM, first compound 1 µM): 105%
viability, T/C (second compound 0.316 µM, first compound 3.16 µM): 85%
viability, T/C (second compound 0.316 µM, first compound 10 µM): 94.1%
viability, T/C (second compound 1 µM, first compound 0.0316 µM): 94.2%
viability, T/C (second compound 1 µM, first compound 0.1 µM): 93.9%
viability, T/C (second compound 1 µM, first compound 0.316 µM): 83.7%
viability, T/C (second compound 1 µM, first compound 1 µM): 85.8%
viability, T/C (second compound 1 µM, first compound 3.16 µM): 73.5%
viability, T/C (second compound 1 µM, first compound 10 µM): 79.9%
viability, T/C (second compound 3.16 µM, first compound 0.0316 µM): 101%
viability, T/C (second compound 3.16 µM, first compound 0.1 µM): 110%
viability, T/C (second compound 3.16 µM, first compound 0.316 µM): 118%
viability, T/C (second compound 3.16 µM, first compound 1 µM): 86.2%
viability, T/C (second compound 3.16 µM, first compound 3.16 µM): 88.6%
viability, T/C (second compound 3.16 µM, first compound 10 µM): 72.5%
viability, T/C (second compound 10 µM, first compound 0.0316 µM): 105%
viability, T/C (second compound 10 µM, first compound 0.1 µM): 94.5%
viability, T/C (second compound 10 µM, first compound 0.316 µM): 103%
viability, T/C (second compound 10 µM, first compound 1 µM): 91.2%
viability, T/C (second compound 10 µM, first compound 3.16 µM): 84.1%
viability, T/C (second compound 10 µM, first compound 10 µM): 81%
